Laboratory results reported in the supplement of paper PMC10307832.

Experiments:
Assay in all cases: relative viability (nuclei count vs DMSO), 5 days (fraction); higher = more cells survive
[1] = compound: CCC1=CN=CN=C1N2CCN(CC2)CC3=NC4=C(N3)C=C(C=C4)C(F)(F)F + C[C@]1(O)C[C@@H](c2nc(-c3ccc4ccc(-c5ccccc5)nc4c3)c3c(N)nccn32)C1 [Linsitinib] (partner 1 µM)
In short: (§1)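 One day after seeding in 1536-well plates, lung cancer cell lines were dosed by pin tool. Dosing was either single-drug or a fixed anchor-drug dose plus five library-drug doses (not always all listed) in √10 steps. After 5 days, nuclei were stained in one fix-and-stain step and counted on 4× images, and relative viability is the nuclei count of treated wells over that of vehicle wells, given as the median of duplicate plates.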

[2] = compound: CCn1c(-c2nonc2N)nc2cnc(Oc3cccc(NC(=O)c4ccc(OCCN5CCOCC5)cc4)c3)cc21 + Nc1ncn([C@H]2C[C@H](O)[C@@H](CO)O2)c(=O)n1 [Decitabine] (partner 2 µM)
In short: as §1

[3] = compound: CCn1c(-c2nonc2N)nc2cnc(Oc3cccc(NC(=O)c4ccc(OCCN5CCOCC5)cc4)c3)cc21 + COc1cc2c(Oc3ccc(NC(=O)C4(C(=O)Nc5ccc(F)cc5)CC4)cc3F)ccnc2cc1OCCCN1CCOCC1 [Foretinib] (partner 0.25 µM)
In short: as §1

Mirin + Alpelisib = compound: N=C1NC(=O)/C(=C/c2ccc(O)cc2)S1 [Mirin] + Cc1nc(NC(=O)N2CCC[C@H]2C(N)=O)sc1-c1ccnc(C(C)(C)C(F)(F)F)c1 [Alpelisib] (partner 2 µM)
In short: as §1

Cell Line: COR-L 105
- relative viability ([1]; first compound 0.04 µM): 0.953
- relative viability ([1]; first compound 0.1265 µM): 0.925
- relative viability ([1]; first compound 0.4 µM): 0.873
- relative viability ([1]; first compound 1.265 µM): 0.839
- relative viability ([1]; first compound 4 µM): 0.977
- relative viability ([2]; first compound 0.04 µM): 0.669
- relative viability ([2]; first compound 0.1265 µM): 0.512
- relative viability ([2]; first compound 0.4 µM): 0.596
- relative viability ([2]; first compound 1.265 µM): 0.432
- relative viability ([2]; first compound 4 µM): 0.377
- relative viability ([3]; first compound 0.04 µM): 1.25
- relative viability ([3]; first compound 0.1265 µM): 1
- relative viability ([3]; first compound 0.4 µM): 0.874
- relative viability ([3]; first compound 1.265 µM): 0.575
- relative viability ([3]; first compound 4 µM): 0.308
- relative viability (Mirin + Alpelisib; first compound 0.25 µM): 0.914
- relative viability (Mirin + Alpelisib; first compound 0.7906 µM): 1.26
- relative viability (Mirin + Alpelisib; first compound 2.5 µM): 1.13
- relative viability (Mirin + Alpelisib; first compound 7.906 µM): 0.925
- relative viability (Mirin + Alpelisib; first compound 25 µM): 1.04

Cell Line: NCI-H1993
- relative viability ([1]; first compound 0.04 µM): 0.81
- relative viability ([1]; first compound 0.1265 µM): 0.799
- relative viability ([1]; first compound 0.4 µM): 0.753
- relative viability ([1]; first compound 1.265 µM): 0.72
- relative viability ([1]; first compound 4 µM): 0.838
- relative viability ([2]; first compound 0.04 µM): 0.557
- relative viability ([2]; first compound 0.1265 µM): 0.616
- relative viability ([2]; first compound 0.4 µM): 0.652
- relative viability ([2]; first compound 1.265 µM): 0.496
- relative viability ([2]; first compound 4 µM): 0.531
- relative viability ([3]; first compound 0.04 µM): 0.84
- relative viability ([3]; first compound 0.1265 µM): 0.765
- relative viability ([3]; first compound 0.4 µM): 0.659
- relative viability ([3]; first compound 1.265 µM): 0.795
- relative viability ([3]; first compound 4 µM): 0.723
- relative viability (Mirin + Alpelisib; first compound 0.25 µM): 0.663
- relative viability (Mirin + Alpelisib; first compound 0.7906 µM): 0.779
- relative viability (Mirin + Alpelisib; first compound 2.5 µM): 0.681
- relative viability (Mirin + Alpelisib; first compound 7.906 µM): 0.65
- relative viability (Mirin + Alpelisib; first compound 25 µM): 0.674

Cell Line: NCI-H1437
- relative viability ([1]; first compound 0.04 µM): 1.03
- relative viability ([1]; first compound 0.1265 µM): 0.967
- relative viability ([1]; first compound 0.4 µM): 0.896
- relative viability ([1]; first compound 1.265 µM): 0.836
- relative viability ([1]; first compound 4 µM): 0.634
- relative viability ([2]; first compound 0.04 µM): 0.489
- relative viability ([2]; first compound 0.1265 µM): 0.61
- relative viability ([2]; first compound 0.4 µM): 0.547
- relative viability ([2]; first compound 1.265 µM): 0.499
- relative viability ([2]; first compound 4 µM): 0.426
- relative viability ([3]; first compound 0.04 µM): 1.26
- relative viability ([3]; first compound 0.1265 µM): 1.31
- relative viability ([3]; first compound 0.4 µM): 1.23
- relative viability ([3]; first compound 1.265 µM): 1.06
- relative viability ([3]; first compound 4 µM): 0.865
- relative viability (Mirin + Alpelisib; first compound 0.25 µM): 0.979
- relative viability (Mirin + Alpelisib; first compound 0.7906 µM): 0.884
- relative viability (Mirin + Alpelisib; first compound 2.5 µM): 0.832
- relative viability (Mirin + Alpelisib; first compound 7.906 µM): 0.705
- relative viability (Mirin + Alpelisib; first compound 25 µM): 0.474

Cell Line: PC-14
- relative viability ([1]; first compound 0.04 µM): 0.918
- relative viability ([1]; first compound 0.1265 µM): 0.896
- relative viability ([1]; first compound 0.4 µM): 0.965
- relative viability ([1]; first compound 1.265 µM): 0.931
- relative viability ([1]; first compound 4 µM): 0.982
- relative viability ([2]; first compound 0.04 µM): 0.238
- relative viability ([2]; first compound 0.1265 µM): 0.252
- relative viability ([2]; first compound 0.4 µM): 0.217
- relative viability ([2]; first compound 1.265 µM): 0.213
- relative viability ([2]; first compound 4 µM): 0.286
- relative viability ([3]; first compound 0.04 µM): 0.927
- relative viability ([3]; first compound 0.1265 µM): 0.84
- relative viability ([3]; first compound 0.4 µM): 0.761
- relative viability ([3]; first compound 1.265 µM): 0.718
- relative viability ([3]; first compound 4 µM): 0.72
- relative viability (Mirin + Alpelisib; first compound 0.25 µM): 0.83
- relative viability (Mirin + Alpelisib; first compound 0.7906 µM): 0.915
- relative viability (Mirin + Alpelisib; first compound 2.5 µM): 1.01
- relative viability (Mirin + Alpelisib; first compound 7.906 µM): 0.95
- relative viability (Mirin + Alpelisib; first compound 25 µM): 1.05

Cell Line: NCI-H1666
- relative viability ([1]; first compound 0.04 µM): 0.726
- relative viability ([1]; first compound 0.1265 µM): 0.832
- relative viability ([1]; first compound 0.4 µM): 0.845
- relative viability ([1]; first compound 1.265 µM): 0.913
- relative viability ([1]; first compound 4 µM): 0.821
- relative viability ([2]; first compound 0.04 µM): 0.796
- relative viability ([2]; first compound 0.1265 µM): 0.787
- relative viability ([2]; first compound 0.4 µM): 0.751
- relative viability ([2]; first compound 1.265 µM): 0.653
- relative viability ([2]; first compound 4 µM): 0.704
- relative viability ([3]; first compound 0.04 µM): 1.1
- relative viability ([3]; first compound 0.1265 µM): 1.11
- relative viability ([3]; first compound 0.4 µM): 1.2
- relative viability ([3]; first compound 1.265 µM): 0.767
- relative viability ([3]; first compound 4 µM): 0.442
- relative viability (Mirin + Alpelisib; first compound 0.25 µM): 0.869
- relative viability (Mirin + Alpelisib; first compound 0.7906 µM): 1.01
- relative viability (Mirin + Alpelisib; first compound 2.5 µM): 0.884
- relative viability (Mirin + Alpelisib; first compound 7.906 µM): 0.826
- relative viability (Mirin + Alpelisib; first compound 25 µM): 0.528

Cell Line: NCI-H1944
- relative viability ([1]; first compound 0.04 µM): 1.36
- relative viability ([1]; first compound 0.1265 µM): 1.21
- relative viability ([1]; first compound 0.4 µM): 1.08
- relative viability ([1]; first compound 4 µM): 0.99
- relative viability ([2]; first compound 0.04 µM): 0.416
- relative viability ([2]; first compound 0.1265 µM): 0.414
- relative viability ([2]; first compound 0.4 µM): 0.425
- relative viability ([2]; first compound 1.265 µM): 0.442
- relative viability ([2]; first compound 4 µM): 0.428
- relative viability ([3]; first compound 0.04 µM): 0.772
- relative viability ([3]; first compound 0.1265 µM): 0.869
- relative viability ([3]; first compound 0.4 µM): 0.978
- relative viability ([3]; first compound 1.265 µM): 0.861
- relative viability ([3]; first compound 4 µM): 0.658
- relative viability (Mirin + Alpelisib; first compound 0.25 µM): 0.834
- relative viability (Mirin + Alpelisib; first compound 2.5 µM): 0.813
- relative viability (Mirin + Alpelisib; first compound 7.906 µM): 0.718
- relative viability (Mirin + Alpelisib; first compound 25 µM): 0.52

Cell Line: NCI-H2023
- relative viability ([1]; first compound 0.04 µM): 0.714
- relative viability ([1]; first compound 0.1265 µM): 0.658
- relative viability ([1]; first compound 0.4 µM): 0.664
- relative viability ([1]; first compound 1.265 µM): 0.757
- relative viability ([1]; first compound 4 µM): 0.746
- relative viability ([2]; first compound 0.04 µM): 0.232
- relative viability ([2]; first compound 0.1265 µM): 0.231
- relative viability ([2]; first compound 0.4 µM): 0.216
- relative viability ([2]; first compound 1.265 µM): 0.173
- relative viability ([2]; first compound 4 µM): 0.199
- relative viability ([3]; first compound 0.04 µM): 0.897
- relative viability ([3]; first compound 0.1265 µM): 0.988
- relative viability ([3]; first compound 0.4 µM): 1.03
- relative viability ([3]; first compound 1.265 µM): 0.71
- relative viability ([3]; first compound 4 µM): 0.451
- relative viability (Mirin + Alpelisib; first compound 0.25 µM): 0.588
- relative viability (Mirin + Alpelisib; first compound 0.7906 µM): 0.594
- relative viability (Mirin + Alpelisib; first compound 2.5 µM): 0.616
- relative viability (Mirin + Alpelisib; first compound 7.906 µM): 0.616
- relative viability (Mirin + Alpelisib; first compound 25 µM): 0.555

Cell Line: NCI-H1755
- relative viability ([1]; first compound 0.04 µM): 1.02
- relative viability ([1]; first compound 0.1265 µM): 0.938
- relative viability ([1]; first compound 0.4 µM): 0.955
- relative viability ([1]; first compound 1.265 µM): 0.948
- relative viability ([1]; first compound 4 µM): 0.944
- relative viability ([2]; first compound 0.04 µM): 0.732
- relative viability ([2]; first compound 0.1265 µM): 0.72
- relative viability ([2]; first compound 0.4 µM): 0.729
- relative viability ([2]; first compound 1.265 µM): 0.719
- relative viability ([2]; first compound 4 µM): 0.654
- relative viability ([3]; first compound 0.04 µM): 0.907
- relative viability ([3]; first compound 0.1265 µM): 0.957
- relative viability ([3]; first compound 0.4 µM): 0.916
- relative viability ([3]; first compound 1.265 µM): 0.619
- relative viability ([3]; first compound 4 µM): 0.645
- relative viability (Mirin + Alpelisib; first compound 0.25 µM): 0.926
- relative viability (Mirin + Alpelisib; first compound 0.7906 µM): 0.947
- relative viability (Mirin + Alpelisib; first compound 2.5 µM): 0.976
- relative viability (Mirin + Alpelisib; first compound 7.906 µM): 0.947
- relative viability (Mirin + Alpelisib; first compound 25 µM): 0.876
